Data taken from patent publication US6589957B2, “Compounds and methods of use for treatment of neurogenic inflammation” (Harbor Branch Oceanographic Institution, Inc., priority 1998, dated 2003).

Each compound was assayed on resiniferatoxin (RTX)-induced mouse ear edema (assay: Inhibition of resiniferatoxin-induced inflammation (edema) of the mouse ear). Conditions: 50 μg/ear topically in acetone together with RTX 0.1 μg/ear, 30-minute incubation, relative to control group edema.
Format: in vivo
Procedure: Inhibition of Resiniferatoxin-Induced Inflammation (Edema) of the Mouse Ear
Induction of mouse ear edema can be conducted by known methods (Inoue, 1-f., N. Nagata, Y. Koshffiara [1993]). Compounds to be tested for anti-neurogenic inflammatory activity are topically applied in acetone to the ears of mice in a solution that includes the edema-causing irritant resiniferatoxin (RTX). RTX alone (0.1 μg/ear) or in combination with various dilutions of test compound are applied to both sides of the left ears (5 mice per treatment group) and acetone is applied to all right ears. After a 30-minute incubation, the mice are sacrificed, the ears removed, and bores taken and weighed. Edema is measured by subtracting the weight of the right ear (acetone control) from the weight of the left ear (treated). Results are recorded as % decrease (inhibition) or % increase (potentiation) in edema relative to the control group edema.
Bis-heterocycle compounds of the subject invention, e.g., the bis-indole compounds, show significant anti-inflammatory properties.

Row | Compound | inhibition of RTX-induced edema
1 | CC1c2[nH]c(N)nc2C2(O)CC1c1c(-c3cnc(-c4c[nH]c5cc(Br)ccc45)c(=O)[nH]3)c[nH]c1C2=O (stereo not drawn) [dragmacidin f] | approximately 69.9%
2 | Nc1ncc(C(Cc2nc(C(=O)c3c[nH]c4cc(O)ccc34)[nH]c2-c2c[nH]c3cc(Br)ccc23)C(=O)O)[nH]1 (stereo not drawn) [topsentin d] | approximately 96.9%
3 | CC(c1cnc(N)[nH]1)c1nc(C(=O)c2c[nH]c3cc(O)ccc23)[nH]c1-c1c[nH]c2cc(Br)ccc12 (stereo not drawn) [topsentin e] | approximately 88.4%
